The values below come from article PMC3037034 (ACS Medicinal Chemistry Letters, 2010).

pIC50: −log10 of the molar value.

One assay deals with T1, human COX-2 (Homo sapiens, UniProt P35354).
T1 sequence (P35354 18-604): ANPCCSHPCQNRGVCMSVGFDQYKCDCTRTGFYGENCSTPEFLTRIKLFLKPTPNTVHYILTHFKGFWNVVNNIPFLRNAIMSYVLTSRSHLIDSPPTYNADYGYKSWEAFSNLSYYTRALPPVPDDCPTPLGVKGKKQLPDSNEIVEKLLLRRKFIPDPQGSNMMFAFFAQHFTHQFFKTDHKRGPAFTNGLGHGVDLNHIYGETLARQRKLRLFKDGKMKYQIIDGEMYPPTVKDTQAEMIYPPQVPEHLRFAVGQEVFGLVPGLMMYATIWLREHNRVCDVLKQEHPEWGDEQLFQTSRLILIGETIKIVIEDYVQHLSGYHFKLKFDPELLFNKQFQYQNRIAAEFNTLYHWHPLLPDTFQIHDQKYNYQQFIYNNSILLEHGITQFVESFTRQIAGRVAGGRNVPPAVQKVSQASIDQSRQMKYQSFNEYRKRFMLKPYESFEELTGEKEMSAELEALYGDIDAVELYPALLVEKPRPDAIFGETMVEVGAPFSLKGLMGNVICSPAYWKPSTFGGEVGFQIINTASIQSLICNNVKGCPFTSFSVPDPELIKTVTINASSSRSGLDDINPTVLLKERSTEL
The experiment in a line: purified COX-2 inhibition, TLC assay. It counts as biochemical. The settings on record: for COX-2 inhibitory activity (in words): purified COX-2.

The target in a further assay is T2, ovine COX-1 (Ovis aries, UniProt P05979).
T2 sequence (P05979 25-600): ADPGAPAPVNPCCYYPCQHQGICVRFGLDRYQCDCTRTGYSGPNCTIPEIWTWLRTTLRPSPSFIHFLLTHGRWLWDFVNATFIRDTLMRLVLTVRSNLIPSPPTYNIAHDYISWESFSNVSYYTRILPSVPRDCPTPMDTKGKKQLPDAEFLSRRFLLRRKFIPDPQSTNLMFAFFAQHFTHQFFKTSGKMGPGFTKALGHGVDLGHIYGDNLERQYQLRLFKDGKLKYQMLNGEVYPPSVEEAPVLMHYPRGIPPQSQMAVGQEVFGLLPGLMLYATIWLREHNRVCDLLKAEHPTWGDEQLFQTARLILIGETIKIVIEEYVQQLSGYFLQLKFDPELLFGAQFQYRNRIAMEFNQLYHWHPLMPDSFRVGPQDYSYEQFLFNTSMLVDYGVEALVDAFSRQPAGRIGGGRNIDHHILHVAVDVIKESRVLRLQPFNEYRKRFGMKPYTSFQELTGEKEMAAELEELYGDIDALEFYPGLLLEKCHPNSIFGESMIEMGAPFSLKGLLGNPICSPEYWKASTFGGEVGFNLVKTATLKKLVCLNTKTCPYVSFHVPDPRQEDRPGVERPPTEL
The experiment in a line: purified COX-1 inhibition, TLC assay. It counts as biochemical. The settings on record: at concentrations up to 5 μM.

Consider `COC(=O)c1cc(-c2cccc(I)c2)n(-c2ccc(S(N)(=O)=O)cc2)n1` [compound 2], for which the negative-log IC50 (pIC50) on human COX-2 is 5.42. The molecule `COC(=O)c1cc(-c2ccc(I)cc2)n(-c2ccc(S(N)(=O)=O)cc2)n1` [compound 3] showed a pIC50 against human COX-2 of 6.25. Regarding `CCOC(=O)c1cc(-c2ccc(I)cc2)n(-c2ccc(S(N)(=O)=O)cc2)n1` [compound 4], the pIC50 at human COX-2 was 6.59. Take `NS(=O)(=O)c1ccc(-n2nc(CCC(=O)O)cc2-c2cccc(I)c2)cc1` [compound 5]: at human COX-2, the pIC50 is below 5.40 and the “COX-2 inhibitory activity (in words)” value is “inactive”.

Take `NS(=O)(=O)c1ccc(-n2nc(CCC(=O)O)cc2-c2ccc(I)cc2)cc1` [compound 6]: on human COX-2, the negative logarithm of the IC50 (pIC50) is below 5.40 and the “COX-2 inhibitory activity (in words)” value was “inactive”. The molecule `CS(=O)(=O)c1ccc(-n2nc(C(F)(F)F)cc2-c2cccc(I)c2)cc1` [compound 7] gave a pIC50 against human COX-2 of 6.49. Regarding `CS(=O)(=O)c1ccc(-n2nc(C(F)(F)F)cc2-c2ccc(I)cc2)cc1` [compound 8, 5-(4-iodophenyl)-1-{4-(methylsulfonyl)phenyl}-3-(trifluoromethyl)-1H-pyrazole], the “inhibition of COX-1 (in words)” value on ovine COX-1 is “without inhibition”. The negative-log IC50 (pIC50) against human COX-2 is 7.30.

As for `COC(=O)c1cc(-c2cccc(I)c2)n(-c2ccc(S(C)(=O)=O)cc2)n1` [compound 9], on human COX-2, the negative-log IC50 (pIC50) is below 5.40. On the same count and under the same terms, in the case of `COC(=O)c1cc(-c2ccc(I)cc2)n(-c2ccc(S(C)(=O)=O)cc2)n1` [compound 10] it was 5.52.
